The IC50 is the point on the concentration scale where inhibition reaches its midpoint. One may read the Ki as a dissociation constant, usually derived from enzyme kinetics or from competition with a known ligand.

Six compounds from ChEMBL document CHEMBL1909046, “DrugMatrix in vitro pharmacology data” can be followed below.

The structures appear in SMILES notation.

Beta-2 adrenergic receptor, sequence (P07550 whole entry): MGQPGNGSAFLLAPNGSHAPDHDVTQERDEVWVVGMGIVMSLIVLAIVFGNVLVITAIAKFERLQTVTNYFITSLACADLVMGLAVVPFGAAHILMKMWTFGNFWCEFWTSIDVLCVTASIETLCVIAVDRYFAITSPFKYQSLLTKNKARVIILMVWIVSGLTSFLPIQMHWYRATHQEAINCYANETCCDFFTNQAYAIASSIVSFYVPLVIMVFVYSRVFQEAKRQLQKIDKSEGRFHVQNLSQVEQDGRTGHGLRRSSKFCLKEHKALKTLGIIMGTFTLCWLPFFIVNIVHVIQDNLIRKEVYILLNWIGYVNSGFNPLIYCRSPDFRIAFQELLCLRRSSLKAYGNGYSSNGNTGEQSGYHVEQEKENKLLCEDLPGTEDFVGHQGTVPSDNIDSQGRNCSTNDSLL
Delta-type opioid receptor, sequence (P41143 whole entry): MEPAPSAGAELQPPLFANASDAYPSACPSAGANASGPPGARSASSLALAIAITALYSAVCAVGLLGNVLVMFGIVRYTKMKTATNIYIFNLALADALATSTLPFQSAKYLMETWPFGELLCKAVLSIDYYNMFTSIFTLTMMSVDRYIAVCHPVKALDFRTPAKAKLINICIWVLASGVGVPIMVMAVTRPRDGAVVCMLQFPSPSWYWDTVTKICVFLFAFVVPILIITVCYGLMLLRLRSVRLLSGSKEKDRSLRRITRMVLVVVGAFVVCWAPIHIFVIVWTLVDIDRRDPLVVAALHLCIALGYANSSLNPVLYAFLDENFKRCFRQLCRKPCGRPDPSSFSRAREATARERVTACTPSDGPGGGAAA

One data set has as its target Beta-2 adrenergic receptor (Homo sapiens, UniProt P07550). Put plainly: DRUGMATRIX: Adrenergic beta2 radioligand binding (ligand: [3H] CGP-12177). Format: cell membranes, Membrane. Conditions: cho; Not Active = under 50% inhibition at 10 µM.
`CC(=O)[C@@]1(O)CC[C@H]2[C@@H]3C[C@H](C)C4=CC(=O)CC[C@]4(C)[C@H]3CC[C@@]21C`: the IC50 result is listed as “Not Active”.
Regarding `CC(C)N1CCN(c2ccc(OCC3COC(Cn4cncn4)(c4ccc(Cl)cc4Cl)O3)cc2)CC1` (stereo unspecified) [TERCONAZOLE], the IC50 result is listed as “Not Active”.
Still for that read-out and setting: as for `Nc1nc2nc[nH]c2c(=S)[nH]1` [THIOGUANINE], the entry is “Not Active”.
Same read-out and setting: as for `COc1nc(C)nc(Cl)c1NC1=NCCN1` [MOXONIDINE], the entry is “Not Active”; as for `C[C@@H]1CN(c2c(F)c(N)c3c(=O)c(C(=O)O)cn(C4CC4)c3c2F)C[C@H](C)N1` [SPARFLOXACIN], “Not Active”.
Same read-out and setting: the value for `N[C@@H](Cc1ccc(O)c(O)c1)C(=O)O` [LEVODOPA] was “Not Active”.

Test system in the next data set: not listed separately
Put plainly: DRUGMATRIX: Glutamate, NMDA, Phencyclidine radioligand binding (ligand: [3H] TCP). The note with it: Not Active = under 50% inhibition at 10 µM. In kind it is cell membranes, Rattus norvegicus, Wistar, Cerebral cortex, Membrane.
Take `CC(=O)[C@@]1(O)CC[C@H]2[C@@H]3C[C@H](C)C4=CC(=O)CC[C@]4(C)[C@H]3CC[C@@]21C`: the IC50 entry is given as “Not Active” and the Ki entry is “Not Active”.
Turning to `CC(C)N1CCN(c2ccc(OCC3COC(Cn4cncn4)(c4ccc(Cl)cc4Cl)O3)cc2)CC1` (stereo unspecified) [TERCONAZOLE], the IC50 result was “Not Active” and the Ki entry is “Not Active”.
Take `Nc1nc2nc[nH]c2c(=S)[nH]1` [THIOGUANINE]: the IC50 result is listed as “Not Active” and the Ki result is reported as “Not Active”.
`COc1nc(C)nc(Cl)c1NC1=NCCN1` [MOXONIDINE]: the IC50 entry is “Not Active” and the Ki entry is recorded as “Not Active”.
With `C[C@@H]1CN(c2c(F)c(N)c3c(=O)c(C(=O)O)cn(C4CC4)c3c2F)C[C@H](C)N1` [SPARFLOXACIN], the IC50 result is “Not Active” and the Ki result is “Not Active”.
As to `N[C@@H](Cc1ccc(O)c(O)c1)C(=O)O` [LEVODOPA], the IC50 entry is recorded as “Not Active” and the Ki entry is recorded as “Not Active”.

A further data set addresses T1, Leukotriene C4 synthase (Cavia porcellus, UniProt A6XA80).
T1 sequence (A6XA80 whole entry): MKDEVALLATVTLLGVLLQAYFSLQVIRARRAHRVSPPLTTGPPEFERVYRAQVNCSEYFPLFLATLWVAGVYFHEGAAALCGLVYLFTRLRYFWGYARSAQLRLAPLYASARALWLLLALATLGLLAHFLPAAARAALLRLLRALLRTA
Format: tissue-based, Lung.
Settings: not given
For the compound `CC(=O)[C@@]1(O)CC[C@H]2[C@@H]3C[C@H](C)C4=CC(=O)CC[C@]4(C)[C@H]3CC[C@@]21C`, the IC50 result is reported as “Not Active”.
Same read-out and setting: as for `CC(C)N1CCN(c2ccc(OCC3COC(Cn4cncn4)(c4ccc(Cl)cc4Cl)O3)cc2)CC1` (stereo unspecified) [TERCONAZOLE], the entry is “Not Active”; as for `Nc1nc2nc[nH]c2c(=S)[nH]1` [THIOGUANINE], “Not Active”.
On the same count and under the same terms, as for `COc1nc(C)nc(Cl)c1NC1=NCCN1` [MOXONIDINE], the entry is “Not Active”; as for `C[C@@H]1CN(c2c(F)c(N)c3c(=O)c(C(=O)O)cn(C4CC4)c3c2F)C[C@H](C)N1` [SPARFLOXACIN], “Not Active”; as for `N[C@@H](Cc1ccc(O)c(O)c1)C(=O)O` [LEVODOPA], “Not Active”.

In a further data set the target is T2, Cytochrome P450 1A2 (Homo sapiens, UniProt P05177). Also: in other assays of this panel Not Active means under 50% inhibition at 10 µM.
T2 sequence (P05177 whole entry): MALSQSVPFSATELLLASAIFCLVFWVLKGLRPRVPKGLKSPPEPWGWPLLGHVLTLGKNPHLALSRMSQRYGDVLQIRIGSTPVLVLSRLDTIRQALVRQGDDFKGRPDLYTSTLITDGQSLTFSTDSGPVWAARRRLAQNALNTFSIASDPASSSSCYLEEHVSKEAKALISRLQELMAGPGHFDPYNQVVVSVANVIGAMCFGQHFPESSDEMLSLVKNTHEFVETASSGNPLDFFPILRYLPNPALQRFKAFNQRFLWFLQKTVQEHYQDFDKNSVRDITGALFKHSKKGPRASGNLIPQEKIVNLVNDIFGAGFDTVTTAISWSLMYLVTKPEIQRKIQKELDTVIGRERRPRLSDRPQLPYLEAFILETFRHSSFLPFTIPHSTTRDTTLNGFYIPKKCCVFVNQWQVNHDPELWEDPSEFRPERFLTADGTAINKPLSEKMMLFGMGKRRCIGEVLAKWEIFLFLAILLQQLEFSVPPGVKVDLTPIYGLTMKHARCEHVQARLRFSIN
The note with it: bti-tn-5b1-4.
For `CC(=O)[C@@]1(O)CC[C@H]2[C@@H]3C[C@H](C)C4=CC(=O)CC[C@]4(C)[C@H]3CC[C@@]21C`, the concentration for half-maximal inhibition (IC50) entry is “Not Active” and the Ki entry is reported as “Not Active”.
As to `CC(C)N1CCN(c2ccc(OCC3COC(Cn4cncn4)(c4ccc(Cl)cc4Cl)O3)cc2)CC1` (stereo unspecified) [TERCONAZOLE], the IC50 result is “Not Active” and the inhibition constant (Ki) entry is recorded as “Not Active”.
Consider `Nc1nc2nc[nH]c2c(=S)[nH]1` [THIOGUANINE], for which the IC50 result is reported as “Not Active” and the Ki result is “Not Active”.
For `COc1nc(C)nc(Cl)c1NC1=NCCN1` [MOXONIDINE], the IC50 result is “Not Active” and the Ki entry was “Not Active”.
`C[C@@H]1CN(c2c(F)c(N)c3c(=O)c(C(=O)O)cn(C4CC4)c3c2F)C[C@H](C)N1` [SPARFLOXACIN]: the IC50 entry is “Not Active” and the Ki entry is reported as “Not Active”.
Consider `N[C@@H](Cc1ccc(O)c(O)c1)C(=O)O` [LEVODOPA], for which the IC50 entry is “Not Active” and the Ki result is “Not Active”.

For a further data set, the target named is D(3) dopamine receptor (Homo sapiens, UniProt P35462). The data set can be described thus: DRUGMATRIX: Dopamine D3 radioligand binding (ligand: [3H] Spiperone). In kind it is cell membranes, CHO, Membrane. Conditions: cho.
D(3) dopamine receptor, sequence (P35462 whole entry): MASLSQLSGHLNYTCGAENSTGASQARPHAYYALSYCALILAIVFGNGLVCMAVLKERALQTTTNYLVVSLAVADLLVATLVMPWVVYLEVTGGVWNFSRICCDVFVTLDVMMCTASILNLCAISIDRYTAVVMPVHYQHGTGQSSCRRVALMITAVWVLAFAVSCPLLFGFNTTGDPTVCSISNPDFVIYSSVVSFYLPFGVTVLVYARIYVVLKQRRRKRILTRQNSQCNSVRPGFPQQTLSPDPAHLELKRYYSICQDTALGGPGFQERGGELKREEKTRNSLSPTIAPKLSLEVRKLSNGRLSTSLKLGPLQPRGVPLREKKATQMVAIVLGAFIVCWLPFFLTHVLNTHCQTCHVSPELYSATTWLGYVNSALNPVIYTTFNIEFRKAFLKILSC
As to `CC(=O)[C@@]1(O)CC[C@H]2[C@@H]3C[C@H](C)C4=CC(=O)CC[C@]4(C)[C@H]3CC[C@@]21C`, the IC50 entry is on record as “Not Active”.
Turning to `Nc1nc2nc[nH]c2c(=S)[nH]1` [THIOGUANINE], the IC50 result was “Not Active”.
Still for that read-out and setting: the value for `COc1nc(C)nc(Cl)c1NC1=NCCN1` [MOXONIDINE] was “Not Active”; that for `C[C@@H]1CN(c2c(F)c(N)c3c(=O)c(C(=O)O)cn(C4CC4)c3c2F)C[C@H](C)N1` [SPARFLOXACIN] was “Not Active”.
Same read-out and setting: the value for `N[C@@H](Cc1ccc(O)c(O)c1)C(=O)O` [LEVODOPA] was “Not Active”.

The same data set, now with this note: read-out: IC50.
As to `CC(C)N1CCN(c2ccc(OCC3COC(Cn4cncn4)(c4ccc(Cl)cc4Cl)O3)cc2)CC1` (stereo unspecified) [TERCONAZOLE], the IC50 was determined as 4.71 µM.

Staying with this data set, now noted: read-out: Ki.
On to `CC(C)N1CCN(c2ccc(OCC3COC(Cn4cncn4)(c4ccc(Cl)cc4Cl)O3)cc2)CC1` (stereo unspecified) [TERCONAZOLE], for which the Ki came to 1.6 µM.

Test system in another data set: not listed separately
Put plainly: DRUGMATRIX: Leukotriene, BLT (LTB4) radioligand binding (ligand: [3H]LTB4). In kind it is cell membranes, Membrane. The note with it: u-937; Not Active = under 50% inhibition at 10 µM.
With `CC(=O)[C@@]1(O)CC[C@H]2[C@@H]3C[C@H](C)C4=CC(=O)CC[C@]4(C)[C@H]3CC[C@@]21C`, the IC50 result is “Not Active” and the Ki result is “Not Active”.
Consider `Nc1nc2nc[nH]c2c(=S)[nH]1` [THIOGUANINE], for which the IC50 result was “Not Active” and the Ki result is reported as “Not Active”.
Consider `COc1nc(C)nc(Cl)c1NC1=NCCN1` [MOXONIDINE], for which the IC50 result is given as “Not Active” and the Ki entry was “Not Active”.
Regarding `C[C@@H]1CN(c2c(F)c(N)c3c(=O)c(C(=O)O)cn(C4CC4)c3c2F)C[C@H](C)N1` [SPARFLOXACIN], the IC50 result is recorded as “Not Active” and the Ki result is reported as “Not Active”.
On to `N[C@@H](Cc1ccc(O)c(O)c1)C(=O)O` [LEVODOPA], for which the IC50 result is on record as “Not Active” and the Ki result is on record as “Not Active”.

Still in this data set, the particulars now being: u-937; Not Active = under 50% inhibition at 10 µM; read-out: IC50.
For the compound `CC(C)N1CCN(c2ccc(OCC3COC(Cn4cncn4)(c4ccc(Cl)cc4Cl)O3)cc2)CC1` (stereo unspecified) [TERCONAZOLE], the IC50 was 24.9 µM.

Still in this data set, the particulars now being: u-937; Not Active = under 50% inhibition at 10 µM; read-out: Ki.
As for `CC(C)N1CCN(c2ccc(OCC3COC(Cn4cncn4)(c4ccc(Cl)cc4Cl)O3)cc2)CC1` (stereo unspecified) [TERCONAZOLE], the Ki was 6.32 µM.

Another data set concerns the target Delta-type opioid receptor (Homo sapiens, UniProt P41143). In kind it is cell membranes, HEK293, Membrane. Conditions: hek293. Also: in other assays of this panel Not Active means under 50% inhibition at 10 µM.
With `CC(=O)[C@@]1(O)CC[C@H]2[C@@H]3C[C@H](C)C4=CC(=O)CC[C@]4(C)[C@H]3CC[C@@]21C`, the IC50 result was “Not Active”.
Turning to `CC(C)N1CCN(c2ccc(OCC3COC(Cn4cncn4)(c4ccc(Cl)cc4Cl)O3)cc2)CC1` (stereo unspecified) [TERCONAZOLE], the IC50 result was “Not Active”.
Still for that read-out and setting: the value for `Nc1nc2nc[nH]c2c(=S)[nH]1` [THIOGUANINE] was “Not Active”; that for `COc1nc(C)nc(Cl)c1NC1=NCCN1` [MOXONIDINE] was “Not Active”.
On the same count and under the same terms, as for `C[C@@H]1CN(c2c(F)c(N)c3c(=O)c(C(=O)O)cn(C4CC4)c3c2F)C[C@H](C)N1` [SPARFLOXACIN], the entry is “Not Active”; as for `N[C@@H](Cc1ccc(O)c(O)c1)C(=O)O` [LEVODOPA], “Not Active”.
